Results from paper PMC6225228, “Design, Synthesis and Evaluation of N-pyrazinylbenzamides as Potential Antimycobacterial Agents” (Molecules : A Journal of Synthetic Chemistry and Natural …, 2018).
Converted amounts (≈) assume the structure as drawn. Read-outs that look alike come from different tables or passages of the source.

Tests used:
[1] = system: M. kansasii CNCTC My 235/80 (ATCC 12478); test: Antimycobacterial microdilution MABA, M. kansasii; assay type: cell-based, Mycobacterium kansasii; conditions: for MIC: Mycobacterium kansasii, ATCC12478, pH 6.6, read-out: M. kans. ATCC 12478 MIC, Middlebrook 7H9 with OADC, pH 6.6, MABA
[2] = system: M. avium ssp. avium CNCTC My 80/72 (ATCC 15769); test: Antimycobacterial microdilution MABA, M. avium; assay type: cell-based, Mycobacterium avium; conditions: for MIC: Mycobacterium avium, ATCC15769, pH 6.6, read-out: M. avium ATCC 15769 MIC
[3] = system: Staphylococcus epidermidis H 6966/08; test: Antibacterial microdilution broth, SE; assay type: cell-based; conditions: Staphylococcus epidermidis, read-out: MIC SE
[4] = system: Staphylococcus aureus H 5996/08 methicillin resistant; test: microbe, parasite or virus in culture; assay type: cell-based; conditions: Staphylococcus aureus, MRSA, read-out: MIC MRSA
[5] = system: Lichtheimia corymbifera 272; test: Antifungal microdilution broth, LC; assay type: cell-based; conditions: read-out: MIC LC
[6] = system: Trichophyton interdigitale 445; test: Antifungal microdilution broth, TI; assay type: cell-based; conditions: read-out: MIC TI
[7] = system: Candida glabrata 20/I; test: Antifungal microdilution broth, CG; assay type: cell-based; conditions: Nakaseomyces glabratus, 20/I, read-out: MIC CG
[8] = system: Trichosporon asahii 1188; test: Antifungal microdilution broth, TA; assay type: cell-based; conditions: read-out: MIC TA
[9] = system: Mycobacterium tuberculosis H37Rv CNCTC My 331/88 (ATCC 27294); test: Antimycobacterial microdilution MABA, M. tuberculosis; assay type: cell-based; conditions: for MIC: Mycobacterium tuberculosis, read-out: Mtb H37Rv ATCC 27294 MIC, Middlebrook 7H9 with OADC growth supplement, pH = 6.6, MABA; for Mtb H37Rv ATCC 27294 MIC: Middlebrook 7H9 with OADC growth supplement, pH = 6.6, MABA
[10] = system: Aspergillus fumigatus 231; test: Antifungal microdilution broth, AF; assay type: cell-based; conditions: read-out: MIC AF
[11] = system: Candida tropicalis 156; test: Antifungal microdilution broth, CT; assay type: cell-based; conditions: read-out: MIC CT
[12] = system: Pseudomonas aeruginosa CCM 1961; test: Antibacterial microdilution broth, PA; assay type: cell-based; conditions: Pseudomonas aeruginosa, read-out: MIC PA
[13] = system: Escherichia coli CCM 4517; test: Antibacterial microdilution broth, EC; assay type: cell-based; conditions: Escherichia coli, read-out: MIC EC
[14] = system: Staphylococcus aureus CCM 4516/08; test: Antibacterial microdilution broth, SA; assay type: cell-based; conditions: Staphylococcus aureus
[15] = system: Enterococcus sp. J 14365/08; test: Antibacterial microdilution broth, EF; assay type: cell-based; conditions: Enterococcus, read-out: MIC EF
[16] = system: Candida krusei E28; test: Antifungal microdilution broth, CK; assay type: cell-based; conditions: Pichia kudriavzevii, read-out: MIC CK
[17] = system: Mycobacterium smegmatis CCM 4622 (ATCC 607); test: Antimycobacterial microdilution, M. smegmatis; assay type: cell-based; conditions: Mycolicibacterium smegmatis, read-out: M. smeg. ATCC 607 MIC
[18] = system: Candida albicans ATCC 44859; test: Antifungal microdilution broth, CA; assay type: cell-based; conditions: Candida albicans, read-out: MIC CA
[19] = Middlebrook 7H9 with OADC, pH 6.6, MABA
[20] = Lichtheimia corymbifera, 272, 24 h
[21] = Lichtheimia corymbifera, 272, 48 h
[22] = Trichophyton interdigitale, 445, 72 h
[23] = Trichophyton interdigitale, 445, 120 h
[24] = Trichosporon asahii, 1188, 24 h
[25] = Trichosporon asahii, 1188, 48 h
[26] = Aspergillus fumigatus, 231, 24 h
[27] = Aspergillus fumigatus, 231, 48 h
[28] = CCM4516, 24 h, read-out: MIC SA, 24 h
[29] = CCM4516, 48 h, read-out: MIC SA, 48 h

O=C(c1ccc(Cl)cc1)N(C(=O)c1ccc(Cl)cc1)c1cnccn1 [Compound 1l-SP]
M. kans. ATCC 12478 MIC [1, 19]: >100 µg/mL
MIC [1]: > 100 µg/mL
M. avium ATCC 15769 MIC [2, 19]: >100 µg/mL
MIC [2]: > 100 µg/mL
MIC ([3]; H6966/08, 24 h): > 125 µM
MIC ([3]; H6966/08, 48 h): > 125 µM
MIC ([4]; 24 h): > 125 µM
MIC ([4]; 48 h): > 125 µM
MIC [5, 20]: > 125 µM
MIC [5, 21]: > 125 µM
MIC [6, 22]: > 125 µM
MIC [6, 23]: > 125 µM
MIC ([7]; 24 h): > 125 µM
MIC ([7]; 48 h): > 125 µM
MIC [8, 24]: > 125 µM
MIC [8, 25]: > 125 µM
MIC [9]: 50 µg/mL (≈ 134 µM)
melting point: 153.1 to 153.8 °C
MIC [10, 26]: > 125 µM
MIC [10, 27]: > 125 µM
MIC ([11]; Candida tropicalis, 156, 24 h): > 125 µM
MIC ([11]; Candida tropicalis, 156, 48 h): > 125 µM
MIC ([12]; CCM1961, 72 h): > 125 µM
MIC ([12]; CCM1961, 120 h): > 125 µM
MIC ([13]; CCM4517, 24 h): > 125 µM
MIC ([13]; CCM4517, 48 h): > 125 µM
MIC [14, 28]: > 125 µM
MIC [14, 29]: > 125 µM
MIC ([15]; SP.J14365/08, 24 h): > 125 µM
MIC ([15]; SP.J14365/08, 48 h): > 125 µM
MIC ([16]; E28, 24 h): > 125 µM
MIC ([16]; E28, 48 h): > 125 µM
MIC [17]: ≥ 500 µg/mL
MIC ([18]; ATCC44859, 24 h): > 125 µM
MIC ([18]; ATCC44859, 48 h): > 125 µM

O=C(Nc1cnc(Cl)cn1)c1ccccc1 [Compound 2a]
MIC [1]: > 100 µg/mL
MIC [2]: > 100 µg/mL
MIC ([3]; H6966/08, 24 h): 500 µM (≈ 117 µg/mL)
MIC ([3]; H6966/08, 48 h): 500 µM (≈ 117 µg/mL)
MIC ([4]; 24 h): 250 µM (≈ 58.4 µg/mL)
MIC ([4]; 48 h): 250 µM (≈ 58.4 µg/mL)
MIC [5, 20]: > 500 µM
MIC [5, 21]: > 500 µM
MIC [6, 22]: > 500 µM
MIC [6, 23]: > 500 µM
MIC ([7]; 24 h): > 500 µM
MIC ([7]; 48 h): > 500 µM
MIC [8, 24]: > 500 µM
MIC [8, 25]: > 500 µM
Mtb H37Rv ATCC 27294 MIC [9]: >100 µg/mL
MIC [9]: > 100 µg/mL
melting point: 162.5 to 163.5 °C
MIC [10, 26]: > 500 µM
MIC [10, 27]: > 500 µM
MIC ([11]; Candida tropicalis, 156, 24 h): > 500 µM
MIC ([11]; Candida tropicalis, 156, 48 h): > 500 µM
MIC ([12]; CCM1961, 72 h): > 500 µM
MIC ([12]; CCM1961, 120 h): > 500 µM
MIC ([13]; CCM4517, 24 h): > 500 µM
MIC ([13]; CCM4517, 48 h): > 500 µM
MIC [14, 28]: 250 µM (≈ 58.4 µg/mL)
MIC [14, 29]: 250 µM (≈ 58.4 µg/mL)
MIC ([15]; SP.J14365/08, 24 h): > 500 µM
MIC ([15]; SP.J14365/08, 48 h): > 500 µM
MIC ([16]; E28, 24 h): > 500 µM
MIC ([16]; E28, 48 h): > 500 µM
MIC [17]: ≥ 500 µg/mL
MIC ([18]; ATCC44859, 24 h): > 500 µM
MIC ([18]; ATCC44859, 48 h): > 500 µM

O=C(Nc1cnc(Cl)cn1)c1ccc(Cl)cc1 [Compound 2l]
MIC [1]: > 100 µg/mL
MIC [2]: > 100 µg/mL
MIC ([3]; H6966/08, 24 h): > 125 µM
MIC ([3]; H6966/08, 48 h): > 125 µM
MIC ([4]; 24 h): > 125 µM
MIC ([4]; 48 h): > 125 µM
MIC [5, 20]: > 125 µM
MIC [5, 21]: > 125 µM
MIC [6, 22]: > 125 µM
MIC [6, 23]: > 125 µM
MIC ([7]; 24 h): > 125 µM
MIC ([7]; 48 h): > 125 µM
MIC [8, 24]: > 125 µM
MIC [8, 25]: > 125 µM
MIC [9]: > 100 µg/mL
melting point: 225 to 226.3 °C
MIC [10, 26]: > 125 µM
MIC [10, 27]: > 125 µM
MIC ([11]; Candida tropicalis, 156, 24 h): > 125 µM
MIC ([11]; Candida tropicalis, 156, 48 h): > 125 µM
MIC ([12]; CCM1961, 72 h): > 125 µM
MIC ([12]; CCM1961, 120 h): > 125 µM
MIC ([13]; CCM4517, 24 h): > 125 µM
MIC ([13]; CCM4517, 48 h): > 125 µM
MIC [14, 28]: > 125 µM
MIC [14, 29]: > 125 µM
MIC ([14]; CCM4516, read-out: MIC against S. aureus, time not stated): > 125 µM
MIC ([15]; SP.J14365/08, 24 h): > 125 µM
MIC ([15]; SP.J14365/08, 48 h): > 125 µM
MIC ([16]; E28, 24 h): > 125 µM
MIC ([16]; E28, 48 h): > 125 µM
MIC [17]: ≥ 500 µg/mL
MIC ([18]; ATCC44859, 24 h): > 125 µM
MIC ([18]; ATCC44859, 48 h): > 125 µM

COc1ccccc1C(=O)Nc1cncc(Cl)n1 [Compound 3e]
MIC [1]: > 100 µg/mL
MIC [2]: > 100 µg/mL
MIC ([3]; H6966/08, 24 h): > 500 µM
MIC ([3]; H6966/08, 48 h): > 500 µM
MIC ([4]; 24 h): > 500 µM
MIC ([4]; 48 h): > 500 µM
MIC [5, 20]: > 500 µM
MIC [5, 21]: > 500 µM
MIC [6, 22]: > 500 µM
MIC [6, 23]: > 500 µM
MIC ([7]; 24 h): > 500 µM
MIC ([7]; 48 h): > 500 µM
MIC [8, 24]: > 500 µM
MIC [8, 25]: > 500 µM
Mtb H37Rv ATCC 27294 MIC [9]: >100 µg/mL
MIC [9]: > 100 µg/mL
melting point: 149.1 to 150.7 °C
MIC [10, 26]: > 500 µM
MIC [10, 27]: > 500 µM
MIC ([11]; Candida tropicalis, 156, 24 h): > 500 µM
MIC ([11]; Candida tropicalis, 156, 48 h): > 500 µM
MIC ([12]; CCM1961, 72 h): > 500 µM
MIC ([12]; CCM1961, 120 h): > 500 µM
MIC ([13]; CCM4517, 24 h): > 500 µM
MIC ([13]; CCM4517, 48 h): > 500 µM
MIC [14, 28]: > 500 µM
MIC [14, 29]: > 500 µM
MIC ([15]; SP.J14365/08, 24 h): > 500 µM
MIC ([15]; SP.J14365/08, 48 h): > 500 µM
MIC ([16]; E28, 24 h): > 500 µM
MIC ([16]; E28, 48 h): > 500 µM
MIC [17]: ≥ 500 µg/mL
MIC ([18]; ATCC44859, 24 h): > 500 µM
MIC ([18]; ATCC44859, 48 h): > 500 µM
